Test results reported in ChEMBL document CHEMBL2429841, “Effect of incorporating a thiophene tail in the scaffold of acetazolamide on the inhibition of human carbonic anhydrase isoforms I, II, IX and XII” (Bioorg Med Chem Lett, 2013).

What was measured:
Carbonic anhydrase 12 = Carbonic anhydrase 12 (Homo sapiens, UniProt O43570)
Description: Inhibition of human carbonic anhydrase-12 by stopped flow CO2 hydrase assay

Carbonic anhydrase 9 = Carbonic anhydrase 9 (Homo sapiens, UniProt Q16790); experiment: Inhibition of human carbonic anhydrase-9 by stopped flow CO2 hydrase assay

Carbonic anhydrase 12, sequence (O43570 whole entry): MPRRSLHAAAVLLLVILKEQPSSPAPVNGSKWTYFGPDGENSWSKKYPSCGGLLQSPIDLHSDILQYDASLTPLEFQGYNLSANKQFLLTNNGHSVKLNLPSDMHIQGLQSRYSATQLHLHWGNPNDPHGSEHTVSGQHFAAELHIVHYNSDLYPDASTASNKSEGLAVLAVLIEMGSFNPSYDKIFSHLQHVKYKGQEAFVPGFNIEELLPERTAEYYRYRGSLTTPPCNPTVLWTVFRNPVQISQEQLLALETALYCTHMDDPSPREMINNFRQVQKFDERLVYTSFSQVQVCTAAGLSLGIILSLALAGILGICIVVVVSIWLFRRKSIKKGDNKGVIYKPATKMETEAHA

Ki (Carbonic anhydrase 12)	Ki (Carbonic anhydrase 9)	Structure (SMILES)
21 nM	19 nM	NS(=O)(=O)c1ccc(NC(=O)Cc2cccs2)cc1
71 nM	84 nM	NS(=O)(=O)c1ccc(NC(=O)Cc2ccccc2)cc1

Structure (SMILES)	Ki (Carbonic anhydrase 12)	Ki (Carbonic anhydrase 9)
CCC[C@H](C(=O)Nc1ccc(S(N)(=O)=O)cc1)C(C)(C)C	78 nM	96 nM
